Data: PMC9502953 (Molecules, 2022)

Tests used:
[1] = DMPD radical scavenging (505 nm)
Description: (§1) The DPPH radical scavenging activities were assessed by measuring the absorbance at 517 nm after keeping in the dark for 30 min [81]. […] ABTS solution (7.0 mM) was prepared using K2S2O8 ([…]), and the absorbance of the control was set to 0.700 ± 0.025 at 734 nm on dilution with buffer solution (0.1 M and pH 7.4). […] The control included only ABTS radical solution [82]. […] Briefly, 0.2 mL of FeCl3 (50 mM) and 1 mL of DMPD solution were added to the buffer (pH 5.3, 100 mM). The concentrations of all of the samples were 10–30 μg/mL. The total volume was adjusted to […] using deionized water. An aliquot (1 mL) of DMPD radicals was added, and the absorbance was recorded at 505 nm. The radical scavenging results were expressed as half maximal scavenging concentrations (IC50, μg/mL).

[2] = Fe^3+ reducing ability (K3Fe(CN)6 reduction, absorbance at 700 nm); conditions: 30 μg/mL concentration
Description: (§2) The reaction was terminated by adding 1 mL of trichloroacetic acid (TCA, 10%). Following this, 0.5 mL of newly prepared FeCl3 (0.1%) was transferred, and the absorptions were measured at 700 nm. Deionized water was used as the blank control. […] Finally, after 20 min, absorbances were recorded at 450 nm.

[3] = DPPH radical scavenging (Blois method, 517 nm)
Description: as §1

[4] = ABTS radical scavenging (734 nm)
Description: as §1

[5] = Cu^2+ reducing ability (CUPRAC, neocuproine, absorbance at 450 nm); conditions: 30 μg/mL concentration
Description: as §2

[6] = target: T1, human carbonic anhydrase II (hCA II) (Homo sapiens, UniProt P00918); test: Carbonic anhydrase II inhibition (esterase activity, 348 nm); assay type: biochemical
T1 construct: from tissue; host or cells: human erythrocytes
Description: The CA II isozyme was purified from human erythrocytes using Sepharose-4B-Tirozyne-sulfanylamide affinity column chromatography. Further, it was precipitated, and the serum was separated and adjusted with solid Tris to pH 8.7. The sample was then loaded to the affinity chromatography column and equilibrated with Tris-Na2SO4/HCl (pH 8.7, 22 mM/25 mM). CA II was eluted with sodium acetate/NaClO4 (0.5 M, pH 5.6, 25 °C). Protein quantity during the purification study was determined using the Bradford method. Bovine serum albumin was used as the standard protein [93]. The purity of CA II was controlled using SDS-PAGE [94]. During purification and inhibition of CA II, esterase activities were performed following the change in absorbance at 348 nm
(§3) The Ki values and other parameters were calculated from Lineweaver-Burk graphs as described priorly. The Ki values were taken out from this graph. All of the analyses were independently conducted in triplicate, and the results are expressed as mean values ± SD.

[7] = target: T2, acetylcholinesterase (AChE) (Electrophorus electricus, UniProt O42275); test: biochemical
T2 construct: purchased Sigma-Aldrich GmbH (Steinheim, Germany)
T2 sequence (O42275 24-633): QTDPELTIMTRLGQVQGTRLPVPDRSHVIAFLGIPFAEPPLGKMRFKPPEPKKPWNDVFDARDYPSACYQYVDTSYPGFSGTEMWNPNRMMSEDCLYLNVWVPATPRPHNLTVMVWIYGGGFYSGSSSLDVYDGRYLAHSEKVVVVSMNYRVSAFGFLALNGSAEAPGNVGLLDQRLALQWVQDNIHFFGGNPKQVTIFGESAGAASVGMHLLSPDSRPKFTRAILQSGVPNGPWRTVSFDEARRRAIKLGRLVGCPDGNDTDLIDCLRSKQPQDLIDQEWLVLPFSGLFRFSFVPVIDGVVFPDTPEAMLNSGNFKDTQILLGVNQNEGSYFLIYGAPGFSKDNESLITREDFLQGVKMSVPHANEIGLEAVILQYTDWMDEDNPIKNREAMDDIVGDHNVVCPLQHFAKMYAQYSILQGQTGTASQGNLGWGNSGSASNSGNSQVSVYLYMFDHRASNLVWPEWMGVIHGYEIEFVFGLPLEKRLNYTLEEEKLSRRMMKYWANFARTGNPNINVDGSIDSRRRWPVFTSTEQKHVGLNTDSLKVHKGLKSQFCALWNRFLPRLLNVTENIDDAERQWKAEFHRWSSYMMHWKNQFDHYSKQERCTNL
Description: AChI and BChI were used as substrates for enzymatic reactions.
as §3

[8] = cited from earlier work; for IC50 values for comparison (radical scavenging; assay not given, paragraph on DPPH): 53 (in order of compounds); for DPPH^• removal IC50 (literature): 50 (in order of compounds)
[9] = parameters: method as in ref 12, 3, 47, 48, 49, 50 (in order of compounds); conditions: same concentration; 50 (in order of compounds); cited from earlier work
[10] = parameters: method as in ref 12, 43, 3, 44, 45, 46 (in order of compounds); conditions: similar quantities; 46 (in order of compounds); cited from earlier work
[11] = parameters: method as in ref 47, 48, 3, 53, 49, 48, 12, 53, 50 (in order of compounds); conditions: 50 (in order of compounds); cited from earlier work

| Molecule | DMPD^•+ Scavenging IC50 [1] [µg/mL] | Fe^3+ Reducing λ (700 nm) absorbance [2] | DPPH^• Scavenging IC50 [3] [µg/mL] | ABTS^•+ Scavenging IC50 [4] [µg/mL] | Cu^2+ Reducing λ (450 nm) absorbance [5] | IC50 values for comparison (radical scavenging; assay not given, paragraph on DPPH) [8] [µg/mL] | Cu^2+-reducing absorbance values (natural phenolics) [9] | Fe^3+-reducing absorbance values (previous studies) [10] | DMPD^•+ removing IC50 (literature) [11] [µg/mL] | DPPH^• removal IC50 (literature) [8] [µg/mL] | further results |
| --- | --- | --- | --- | --- | --- | --- | --- | --- | --- | --- | --- |
| COc1ccc2c(c1O)-c1c(O)c(OC)cc3c1[C@H](C2)[N+](C)(C)CC3 [Magnofluorine] | 15.26 | 0.967 | 10.58 | 27.61 | 0.458 |  |  |  |  |  | IC50 [6]: 26 nM; Ki ([6]; Lineweaver-Burk graphs, mean ± SD, read-out: Ki CA II): 25.4 ± 1.1 nM; IC50 [7]: 10 nM |
| O=c1oc2cc(O)ccc2c2oc3cc(O)ccc3c12 [coumestrol] |  |  |  |  |  | 25.95 | 0.739 | 0.739 | 12.81 |  |  |
| L-Adrenaline |  |  |  |  |  | 6.93 |  |  | 15.6 | 30.6 |  |
| Cc1c(C)c2c(c(C)c1O)CCC(C)(C(=O)O)O2 (centres unmarked) [Trolox] | 4.33 | 2.119 | 7.059 | 6.16 | 1.548 |  |  |  |  |  |  |
| CC(=O)c1c(O)c(C)c(O)c2c1OC1=CC(=O)C(C(C)=O)C(=O)C12C (centres unmarked) [usnic acid] |  |  |  |  |  | 10.41 | 0.277 | 0.278 | 33.00 | 49.50 |  |
| O=C(/C=C/c1ccc(O)c(O)c1)OCCc1ccccc1 [CAPE, caffeic acid phenethyl ester] |  |  |  |  |  | 9.80 |  | 2.509 | 26.70 | 3.30 |  |
| Cc1cc(C(C)(C)C)c(O)c(C(C)(C)C)c1 [BHT, butylated hydroxytoluene] | 8.72 | 0.952 | 25.95 | 6.99 | 2.044 |  |  |  |  |  |  |
| O=C(O)/C=C/c1ccc(O)c(O)c1 [caffeic acid] |  |  |  |  |  |  |  | 2.769 |  |  |  |
| O=C1c2c(O)cc(O)cc2OC(c2ccc(O)c(O)c2)C1O (centres unmarked) [taxifolin] |  |  |  |  |  | 0.83 | 0.750 |  | 173.25 | 77.00 |  |
| C=CCc1ccc(O)c(OC)c1 [eugenol] |  |  |  |  |  | 7.84 | 0.762 |  | 10.04 | 16.06 |  |
| O=c1[nH]c(=O)c2[nH]c(=O)[nH]c2[nH]1 [uric acid] |  |  |  |  |  |  |  | 0.432 |  |  |  |
| COc1ccc(O)c(C(C)(C)C)c1 [BHA, butylated hydroxyanisole] | 11.99 | 2.347 | 10.10 | 5.07 | 2.216 |  |  |  |  |  |  |
| Cc1c(C)c2c(c(C)c1O)CC[C@@](C)(CCC[C@H](C)CCC[C@H](C)CCCC(C)C)O2 [α-Tocopherol] | 7.11 | 0.957 | 11.31 | 8.73 | 0.816 |  |  |  |  |  |  |
| CCCCCc1cc(O)cc(O)c1 [olivetol] |  |  |  |  |  | 1.94 | 1.314 |  | 19.25 | 17.77 |  |
| tannic acid |  |  |  |  |  |  |  | 2.428 |  |  |  |
